Assay results as given in article PMC6003898 (EJNMMI Research, 2018).

Tests used:
[1] = system: human U87-MG glioblastoma tumor xenografts in the flank; conditions: mouse, iv
Experimental: Animals were sacrificed by cervical dislocation 60 min after injection. Various tissues (tumor, liver, heart, brain, and kidney) were dissected, weighed, and counted in a calibrated gamma counter (Wizard, PerkinElmer, France). The results were expressed as percentages of injected dose and per gram of tissue (% ID/g).

[2] = system: human U87-MG glioblastoma tumor xenografts in the flank; experiment: in vivo; conditions: mouse
Experimental: (§1) Tumor xenografts were obtained in mice flanks as described previously. Six-week-old female immunodeficient (nu/nu) NMRI mice, weighing 20–25 g, were obtained from Janvier Laboratories (Le Genest Saint Isle, France) and housed in ventilated cages including filter tops with an ad libitum access to food and water. Two xenograft tumors were induced in all mice through subcutaneous flank injections of 2.10^6 of human U87-MG cells. Tumor growth was assessed twice weekly, according to tumor volume (in mm^3) calculated with the formula d2 × D/2, where d and D represent the shortest and longest diameters, respectively, calculated in millimeter with a caliper (decrescent PRC, EDVC, France).
(§2) At the end of the 2nd PET recording, the animals were sacrificed by inhalation of 5% of isoflurane followed by cervical dislocation. Tumors were subsequently surgically removed for further histopathological analysis.
(§3) List-mode acquisitions of 120 min durations were initiated a few seconds prior to tracer injection, and the acquired PET data were subsequently reconstructed in 27 consecutive frames (i.e., 5 frames of 120-s duration followed by 22 frames of 5-min duration) using the ordered-subsets expectation maximization 3D algorithm (OSEM3D, 4 iterations, 16 subsets, zoom 1) together with scatter and attenuation corrections based on transmission source measurement. The final voxel size was 0.8 × 0.8 × 0.9 mm^3.
(§4) Tumor and of various organ activities were determined through SUV mean values within 3D regions of interests (ROI), which were drawn with a dedicated software (Inveon Research Workplace 4.1, Siemens®, Knoxville, USA) on the fusion images encompassing the entire 120-min recording period. Spheroid ROIs were placed inside the liver, brain, and kidney regions with the ROI limits approximating the organ limits as close as possible. Tumor and heart ROIs were obtained with isocontour ROIs and threshold limits of 50 and 80%, respectively, of the maximal voxel value.

[3] = system: human U87-MG glioblastoma tumor xenografts in the brain; experiment: in vivo; conditions: rat
Text: (§5) Briefly, 8-week-old athymic male nude rats (180–220 g), (Hsd: RH-Foxn1rnu; Envigo, Gannat, France), were anesthetized with a mixture of air and 1.5–2% isoflurane and were placed in a Kopf stereotactic frame (900 M Kopf Instruments, Tujunga, CA). After a scalp incision, a burr hole was drilled 0.5 mm anterior and 2.7 mm lateral to bregma and a skull anchor (Patent N° 11 55596) was affixed.

[4] = in vivo; conditions: female, NMRI nu/nu, mouse, iv, 6 MBq, total radioactivity
Experimental: as §1, §2, §3, §4

[5] = in vivo; conditions: male, athymic nude (Hsd: RH-Foxn1rnu), rat, total radioactivity
Text: as §5

tumor-to-normal brain ratio (ex vivo biodistribution data, gamma counter) [1]	course of tumor uptake with time [2]	tumor-to-normal brain ratio (PET imaging) [2]	mean tumor activity (SUVmean) ([2]; iv)	tumor activity relative to contralateral normal brain [3]	Compound	route of tracer clearance [2]	SUV at 1 h [4]	SUV ([5]; SUVmean_ contralateral normal brain)	SUV ([5]; SUVmean_Tumor)
0.61 ± 0.2 %ID/g	progressive enhancement	1.5 ± 0.37	1.19 ± 0.33	1.62 ± 0.15	OC[C@H]1OC(O)[C@H](F)[C@@H](O)[C@@H]1O (stereo partly shown) [^18F-FDG, ^18F-fluorodeoxyglucose]	primary renal route of tracer clearance	–	–	–
–	–	–	–	–	N=C(N)NCCC[C@@H]1NC(=O)[C@H](CCCCNC(=O)CCC(C(=O)O)N2CCN(CC(=O)O)CCN(CC(=O)O)CC2)NC(=O)[C@@H](Cc2ccc(O)cc2)NC(=O)[C@H](CC(=O)O)NC(=O)CNC1=O (stereo partly shown) [^68Ga-NODAGA-RGD, metal not drawn]	primary renal route of tracer clearance	0.23 ± 0.04 SUV	0.1 SUV	0.5 SUV
